The values that follow come from patent publication US20090312406A1, “COUMARIN COMPOUNDS AND THEIR USE FOR TREATING VIRAL INFECTION” (priority 2008, published 2009).

One assay has as its system Influenza A/WSN/33 (H1N1) virus. Put plainly: In vitro anti-influenza virus assay (neutralization test), cytopathic effect on MDCK cells. The conditions noted are these: MDCK cells, 72 h, lower bound (10 nM), upper in μM, read-out: IC50 (concentration reducing virus-induced cytopathic effect by 50%). It counts as cell-based. Here is the method: Anti-influenza activities of the coumarin compounds were evaluated by measuring the ability of a test compound to inhibit the cytopathic effect induced by an influenza virus on MDCK cells. The 96-well tissue culture plates were seeded with 200 μL of MDCK cells at a concentration of 1.1×10^5 cells/mL in DMEM with 10% fetal bovine serum (FBS). The plates were incubated for 24-30 h at 37° C. and were used at about 90% confluency. Influenza A/WSN/33 (H1N1) virus (100 TCID50) was added to the cells and incubated at 35° C. for 1 h. After adsorption, the infected cell plates were overlaid with 50 μL of DMEM plus 2% FBS and a test compound with different concentrations. The plate was incubated at 35° C. for 72 h. At the end of incubation, the plates were fixed by the addition of 100 μL of 4% formaldehyde for 1 h at room temperature. After the removal of formaldehyde, the plates were stained with 0.1% crystal violet for 15 min at room temperature. The plates were washed and dried, and the density of the well was measured at 570 nm. The concentration required for a test compound to reduce the virus-induced cytopathic effect (CPE) by 50% relative to the virus control was expressed as IC50.
Compounds 1 and 95 were also tested on various influenza virus strains. Amantadine or Relenza was also tested for comparison. IC50 is defined as the concentration required for a test compound to reduce the virus-induced cytopathic effect (CPE) by 50% relative to the virus control.
(In general: Cytopathic effects are the visible damage that an infection or toxin causes in cultured cells.)
On to `Cc1cc(=O)oc2c1ccc1oc(C(=O)c3ccco3)c(-c3ccccc3)c12` [Compound 92], for which the IC50 was 10 to 999 nM.
The same measure, in the same setting: in the case of `CCCCCCc1c(C(=O)c2ccccc2)oc2ccc3c(C)cc(=O)oc3c12` [Compound 157] it was 10 to 999 nM; in that of `COc1cccc(C(=O)c2oc3ccc4c(C)cc(=O)oc4c3c2-c2ccccc2)c1` [Compound 31], 10 to 999 nM; in that of `Cc1cc(=O)oc2c1ccc1oc(C(=O)c3ccsc3)c(-c3ccccc3)c12` [Compound 96], 10 to 999 nM.
Still for that read-out and setting: in the case of `COc1cccc(C(=O)c2oc3ccc4c(C)cc(=O)oc4c3c2-c2ccc(Br)cc2)c1` [Compound 252] it was 10 to 999 nM; in that of `Cc1cc(=O)oc2c1ccc1oc(C(=O)c3ccccc3)c(-c3ccc([N+](=O)[O-])cc3)c12` [Compound 145], 10 to 999 nM.
Turning to `Cc1cccc(C(=O)c2oc3ccc4c(C)cc(=O)oc4c3c2-c2ccccc2)c1` [Compound 40], the IC50 lay within 10 to 999 nM.
On the same count and under the same terms, as for `Cc1cc(=O)oc2c1ccc1oc(C(=O)c3nccs3)c(-c3ccccc3)c12` [Compound 107], the figure is 10 to 999 nM.
On the same count and under the same terms, as for `COc1cccc(C(=O)c2oc3ccc4c(C)cc(=O)oc4c3c2-c2cccc(Br)c2)c1` [Compound 256], the figure is 10 to 999 nM.
Same read-out and setting: as for `Cc1c(C)c2ccc3oc(C(=O)c4ccccc4)c(-c4ccccc4)c3c2oc1=O` [Compound 6], the figure is 10 to 999 nM; as for `Cc1cc(=O)oc2c1ccc1oc(C(=O)c3ccccn3)c(-c3ccccc3)c12` [Compound 115], 10 to 999 nM.
On to `O=C(c1ccccc1)c1oc2ccc3c(C(F)(F)F)cc(=O)oc3c2c1-c1ccccc1` [Compound 11], for which the IC50 was 10 to 999 nM.
Still for that read-out and setting: in the case of `Cc1cc(=O)oc2c1ccc1oc(C(=O)c3ccc4ccccc4c3)c(-c3ccccc3)c12` [Compound 54] it was 10 to 999 nM; in that of `Cc1cc(=O)oc2c1ccc1oc(C(=O)c3ccccc3)c(-c3cccc(N)c3)c12` [Compound 146], 10 to 999 nM; in that of `Cc1cc(=O)oc2c1ccc1oc(C(=O)c3cccc(OCCCCCCO)c3)c(-c3ccccc3)c12` [Compound 188], 10 to 999 nM.
Same read-out and setting: as for `Cc1cc(=O)oc2c1ccc1oc(C(=O)c3cccc(C(F)(F)F)c3)c(-c3ccccc3)c12` [Compound 36], the figure is 10 to 999 nM.
Take `Cc1cc(=O)oc2c1ccc1oc(C(=O)c3cccc(OCC4CC4)c3)c(-c3ccccc3)c12` [Compound 179]: the IC50 fell in the range of 10 to 999 nM.
Same read-out and setting: in the case of `Cc1cc(=O)oc2c1ccc1oc(C(=O)c3cccc(OCCCCl)c3)c(-c3ccccc3)c12` [Compound 74] it was 10 to 999 nM.
Same read-out and setting: in the case of `CCCc1c(C(=O)c2ccccc2)oc2ccc3c(C)cc(=O)oc3c12` [Compound 155] it was 10 to 999 nM.
Still for that read-out and setting: in the case of `CC(=O)Oc1cccc(C(=O)c2oc3ccc4c(C)cc(=O)oc4c3c2-c2ccccc2)c1` [Compound 180] it was 10 to 999 nM; in that of `Cc1cc(=O)oc2c1ccc1oc(C(=O)c3cccc(Cl)c3)c(-c3ccccc3)c12` [Compound 48], 10 to 999 nM.
As to `CCCCCCOc1cccc(C(=O)c2oc3ccc4c(C)cc(=O)oc4c3c2-c2ccccc2)c1` [Compound 72], the IC50 fell in the range of 10 to 999 nM.
For `Cc1cc(=O)oc2c1ccc1oc(C(=O)c3ccccc3)c(-c3cccc([N+](=O)[O-])c3)c12` [Compound 144], the IC50 fell in the range of 10 to 999 nM.
As for `Cc1cc(=O)oc2c1ccc1oc(C(=O)c3ccccc3)c(-c3cc(Br)cc(Br)c3)c12` [Compound 150], the IC50 is 10 to 999 nM.
With `Cc1cc(=O)oc2c1ccc1oc(C(=O)c3ccc(F)cc3)c(-c3ccccc3)c12` [Compound 46], the IC50 was 10 to 999 nM.
Consider `CCOc1cccc(C(=O)c2oc3ccc4c(C)cc(=O)oc4c3c2-c2cccc(Br)c2)c1` [Compound 260], for which the IC50 fell in the range of 10 to 999 nM.
On the same count and under the same terms, in the case of `CCCOc1cccc(C(=O)c2oc3ccc4c(C)cc(=O)oc4c3c2-c2ccccc2)c1` [Compound 69] it was 10 to 999 nM; in that of `COc1ccccc1C(=O)c1oc2ccc3c(C)cc(=O)oc3c2c1-c1ccccc1` [Compound 30], 10 to 999 nM; in that of `Cc1cc(=O)oc2c1ccc1oc(C(=O)c3cccc(OCCO[Si](C)(C)C(C)(C)C)c3)c(-c3ccccc3)c12` [Compound 189], 10 to 999 nM.
Still for that read-out and setting: as for `Cc1cc(=O)oc2c1ccc1oc(C(=O)c3cccs3)c(-c3cccs3)c12` [Compound 257], the figure is 10 to 999 nM; as for `Cc1cc(=O)oc2c1ccc1oc(C(O)c3ccccc3)c(-c3ccccc3)c12` (stereo not drawn) [Compound 172], 10 to 999 nM.
Still for that read-out and setting: as for `Cc1ccsc1C(=O)c1oc2ccc3c(C)cc(=O)oc3c2c1-c1ccccc1` [Compound 100], the figure is 10 to 999 nM.
Consider `Cc1cc(=O)oc2c1ccc1oc(C(=O)c3ccccc3Cl)c(-c3ccccc3)c12` [Compound 47], for which the IC50 was 10 to 999 nM.
On the same count and under the same terms, in the case of `Cc1ccc(-c2c(C(=O)c3ccccc3)oc3ccc4c(C)cc(=O)oc4c23)cc1` [Compound 142] it was 10 to 999 nM.

The assay is the same for the next values; noted with them: MDCK cells, 72 h, ranges given, read-out: IC50 (concentration reducing virus-induced cytopathic effect by 50%).
For the molecule `Cc1cc(=O)oc2c1ccc1oc(C(=O)c3cccc(OP(=O)(O)O)c3)c(-c3ccccc3)c12` [Compound 249], the IC50 lay in the range of 1000 to 5900 nM.
Same read-out and setting: in the case of `Cc1cc(=O)oc2c1ccc1oc(C(=O)c3ccccc3)c(-c3cccc(C(=O)O)c3)c12` [Compound 207] it was 1000 to 5900 nM; in that of `COc1ccc(-c2c(C(=O)c3ccccc3)oc3ccc4c(C)cc(=O)oc4c23)cc1` [Compound 248], 6000 to 25000 nM.
Same read-out and setting: as for `Cc1cc(=O)oc2c1ccc1oc(C(=O)c3ccc([N+](=O)[O-])cc3)c(-c3ccccc3)c12` [Compound 51], the figure is 6000 to 25000 nM.
The same measure, in the same setting: in the case of `Cc1cc(=O)oc2c1ccc1oc(C(=O)c3cccc(OC(=O)C4CC4)c3)c(-c3ccccc3)c12` [Compound 181] it was 1000 to 5900 nM; in that of `Cc1cc(=O)oc2c1ccc1oc(C(=O)c3cccc(OCCOCCOCCOCCCl)c3)c(-c3ccccc3)c12` [Compound 178], 1000 to 5900 nM.
Turning to `Cc1ccc(C(=O)c2oc3ccc4c(C)cc(=O)oc4c3c2-c2ccccc2)o1` [Compound 94], the IC50 was 6000 to 25000 nM.
Still for that read-out and setting: as for `Cc1cc(=O)oc2c1ccc1oc(C(=O)c3ccccc3)c(C)c12` [Compound 154], the figure is 1000 to 5900 nM; as for `CC(=O)OCC1C(OCCOc2cccc(C(=O)c3oc4ccc5c(C)cc(=O)oc5c4c3-c3ccccc3)c2)OC(OC(C)=O)C(OC(C)=O)C1OC(C)=O` (stereo not drawn) [Compound 194], 6000 to 25000 nM; as for `Cc1cc(=O)oc2c1ccc1oc(C(=O)c3ccccc3)c(-c3cccc(F)c3)c12` [Compound 133], 1000 to 5900 nM.
Take `Cc1cc(=O)oc2c1ccc1oc(C(=O)c3ccc(Cl)c(Cl)c3)c(-c3ccccc3)c12` [Compound 58]: the IC50 was in the range of 1000 to 5900 nM.
The same measure, in the same setting: in the case of `O=Cc1cc(=O)oc2c1ccc1oc(C(=O)c3ccccc3)c(-c3ccccc3)c12` [Compound 10] it was 1000 to 5900 nM; in that of `CCCCCOc1cccc(C(=O)c2oc3ccc4c(C)cc(=O)oc4c3c2-c2cccc(Br)c2)c1` [Compound 263], 1000 to 5900 nM; in that of `Cc1cc(=O)oc2c1ccc1oc(C(=O)c3cccc(OCCN[C@@]45C[C@@H]6C[C@@H](C[C@@](O)(C6)C4)C5)c3)c(-c3ccccc3)c12` [Compound 183], 6000 to 25000 nM.
On the same count and under the same terms, as for `Cc1cc(=O)oc2c1ccc1oc(C(=O)O)c(-c3ccccc3)c12` [Compound 205], the figure is 1000 to 5900 nM.
The same measure, in the same setting: in the case of `Cc1cc(=O)oc2c1ccc1oc(C(=O)c3cccc(OCCN4Cc5ccccc5C4)c3)c(-c3ccccc3)c12` [Compound 241] it was 1000 to 5900 nM.
Regarding `Cc1cc(=O)oc2c1ccc1oc(C(=O)c3ccccc3)c(-c3ccc(Cl)c(Cl)c3)c12` [Compound 224], the IC50 was 6000 to 25000 nM.
Still for that read-out and setting: in the case of `Cc1cc(=O)oc2c1ccc1oc(C(=O)c3cccc(OCCCO)c3)c(-c3ccccc3)c12` [Compound 185] it was 1000 to 5900 nM; in that of `Cc1cc(=O)oc2c1ccc1[nH]c3ccccc3c12` [Compound 231], 6000 to 25000 nM; in that of `Cc1cc2oc(C(=O)c3ccccc3)c(-c3ccccc3)c2c2oc(=O)ccc12` [Compound 4], 6000 to 25000 nM.
On the same count and under the same terms, in the case of `Cc1cc(=O)oc2c1ccc1oc(C(O)c3ccccc3)cc12` (stereo not drawn) [Compound 226] it was 1000 to 5900 nM.
On to `O=C(c1ccccc1)c1oc2ccc3ccc(=O)oc3c2c1-c1ccccc1` [Compound 2], for which the IC50 fell in the range of 6000 to 25000 nM.
Same read-out and setting: in the case of `Cc1cc(=O)oc2c1ccc1oc(C(=O)c3cccc(C#N)c3)c(-c3ccccc3)c12` [Compound 42] it was 1000 to 5900 nM; in that of `Cc1cc(=O)oc2c1cc(CC1CO1)c1oc(C(=O)c3ccccc3)c(-c3ccccc3)c12` (stereo not drawn) [Compound 18], 1000 to 5900 nM.
Same read-out and setting: in the case of `Cc1cc(=O)oc2c1ccc1oc(C(=O)c3cccc(OC(=O)C#Cc4ccccc4)c3)c(-c3ccccc3)c12` [Compound 201] it was 1000 to 5900 nM.
Still for that read-out and setting: in the case of `Cc1cc(=O)oc2c1ccc1oc(C(=O)c3cccc([N+](=O)[O-])c3)c(-c3ccccc3)c12` [Compound 66] it was 1000 to 5900 nM.
`Cc1cc(=O)oc2c1ccc1oc(C(=O)c3cccc(OCCCO[Si](C)(C)C(C)(C)C)c3)c(-c3ccccc3)c12` [Compound 190]: the IC50 lay within 1000 to 5900 nM.
On the same count and under the same terms, as for `Cc1cc(=O)oc2c1ccc1oc(C(=O)c3ccc4ccccc4c3)c(-c3ccc(F)cc3)c12` [Compound 220], the figure is 1000 to 5900 nM; as for `Cc1cc(=O)oc2c1ccc1oc(C(=O)c3ccccc3)c(-c3ccc4ccccc4c3)c12` [Compound 147], 1000 to 5900 nM.
